Patent publication US9751886B2, “4-amino-6-phenyl-6,7-dihydro[1,2,3]triazolo[1,5-A]pyrazine derivatives as inhibitors of beta-secretase (BACE)” (Janssen Pharmaceutica NV, priority 2013, dated 2017)

Assays:
[1] = system: Abeta total secreted by human neuroblastoma SKNBE2 cells expressing wild type hAPP695; test: BACE1 cellular αLisa assay in SKNBE2 cells, Abeta total; type: cell-based; details: 18 hours incubation; for IC50: Homo sapiens, read-out: Cellular αLisa assay in SKNBE2 cells Abetatotal pIC50 (converted)
Procedure: (§1) In two αLisa assays the levels of Abeta total and Abeta 1-42 produced and secreted into the medium of human neuroblastoma SKNBE2 cells are quantified. The assay is based on the human neuroblastoma SKNBE2 expressing the wild type Amyloid Precursor Protein (hAPP695). The compounds are diluted and added to these cells, incubated for 18 hours and then measurements of Abeta 1-42 and Abeta total are taken. Abeta total and Abeta 1-42 are measured by sandwich αLisa. αLisa is a sandwich assay using biotinylated antibody AbN/25 attached to streptavidin coated beads and antibody Ab4G8 or cAb42/26 conjugated acceptor beads for the detection of Abeta total and Abeta 1-42 respectively. In the presence of Abeta total or Abeta 1-42, the beads come into close proximity. The excitation of the donor beads provokes the release of singlet oxygen molecules that trigger a cascade of energy transfer in the acceptor beads, resulting in light emission.

[2] = target: recombinant BACE2 protein (Homo sapiens (Human), UniProt Q9Y5Z0); test: BACE2 Biochemical FRET based assay; details: 0.4 μg/ml BACE2, 10 μM substrate, 450 min, pH 5.0
Text: (§2) This assay is a Fluorescence Resonance Energy Transfer Assay (FRET) based assay. The substrate for this assay contains the ‘Swedish’ Lys-Met/Asn-Leu mutation of the amyloid precursor protein (APP) beta-secretase cleavage site. This substrate also contains two fluorophores: (7-methoxycoumarin-4-yl) acetic acid (Mca) is a fluorescent donor with excitation wavelength at 320 nm and emission at 405 nm and 2,4-Dinitrophenyl (Dnp) is a proprietary quencher acceptor. […] Upon cleavage by the beta-secretase, the fluorophore Mca is separated from the quenching group Dnp, restoring the full fluorescence yield of the donor. The increase in fluorescence is linearly related to the rate of proteolysis.
Briefly in a 384-well format recombinant BACE2 protein in a final concentration of 0.4 μg/ml is incubated for 450 minutes at room temperature with 10 μM substrate in incubation buffer (50 mM Citrate buffer pH 5.0, 0.05% PEG, no DMSO) in the absence or presence of compound. Next the amount of proteolysis is directly measured by fluorescence measurement at T=0 and T=450 (excitation at 320 nm and emission at 405 nm). Results are expressed in RFU (Relative Fluorescence Units), as difference between T450 and TO.

[3] = target: recombinant BACE1 protein (Homo sapiens (Human), UniProt P56817); test: BACE1 Biochemical FRET based assay - Method 2; details: 0.04 μg/ml BACE1, 20 μM substrate, 450 min, pH 5.0
Text: as §2, with “this assay is an APP derived 13 amino acids peptide that contains the” for “this assay contains the”, “cleavage by BACE1, the fluorophore” for “cleavage by the beta-secretase, the fluorophore”
Briefly in a 384-well format recombinant BACE1 protein in a final concentration of 0.04 μg/ml is incubated for 450 minutes at room temperature with 20 μM substrate in incubation buffer (50 mM Citrate buffer pH 5.0, 0.05% PEG) in the presence of compound or DMSO. Next the amount of proteolysis is directly measured by fluorescence measurement (excitation at 320 nm and emission at 405 nm) at different incubation times (0, 30, 60, 90, 120 and 450 min). For every experiment a time curve (every 30 min between 0 min and 120 min) is used to determine the time where we find the lowest basal signal of the high control. The signal at this time (Tx) is used to subtract from the signal at 450 min. Results are expressed in RFU, as difference between T450 and Tx.

[4] = system: Abeta 1-42 secreted by human neuroblastoma SKNBE2 cells expressing wild type hAPP695; test: BACE1 cellular αLisa assay in SKNBE2 cells, Abeta 1-42; type: cell-based; details: 18 hours incubation; for IC50: Homo sapiens, read-out: Cellular αLisa assay in SKNBE2 cells Abeta 42 pIC50 (converted)
Procedure: as §1

[5] = system: brain levels of soluble Aβ42, Aβ40; test: In vivo Aβ lowering in non-transgenic rodents (MSD electrochemiluminescence); set-up: species or system mouse; details: untreated control = 100
Text: To determine whether acute administration of an Aβ lowering agent would reduce Aβ levels in vivo, non-transgenic rodents, e.g. mice or rats were used. Animals treated with the Aβ lowering agent were examined and compared to those untreated or treated with vehicle and brain levels of soluble Aβ42, Aβ40, Aβ38, and Aβ37 were quantitated by Meso Scale Discovery's (MSD) electrochemiluminescence detection technology. Treatment periods varied from hours (h) to days and were adjusted based on the results of the Aβ lowering once a time course of onset of effect could be established.
A typical protocol for measuring Aβ lowering in vivo is shown but it is only one of many variations that could be used to optimize the levels of detectable A. For example, Aβ lowering compounds were formulated in 20% of Captisol® (a sulfo-butyl ether of β-cyclodextrin) in water or 20% hydroxypropyl β cyclodextrin. The Aβ lowering agents were administered as a single oral dose or by any acceptable route of administration to overnight fasted animals. […]
Blood was collected by decapitation and exsanguinations in EDTA-treated collection tubes. Blood was centrifuged at 1900 g for 10 minutes (min) at 4° C. and the plasma recovered and flash frozen for later analysis. The brain was removed from the cranium and hindbrain. The cerebellum was removed and the left and right hemisphere were separated. The left hemisphere was stored at −18° C. for quantitative analysis of test compound levels. The right hemisphere was rinsed with phosphate-buffered saline (PBS) buffer and immediately frozen on dry ice and stored at −80° C. until homogenization for biochemical assays.
Mouse brains from non-transgenic animals were resuspended in 8 volumes of 0.4% DEA (diethylamine)/50 mM NaCl containing protease inhibitors (Roche-11873580001 or 04693159001) per gram of tissue, e.g. for 0.158 g brain, add 1.264 ml of 0.4% DEA. All samples were homogenized in the FastPrep-24 system (MP Biomedicals) using lysing matrix D (MPBio #6913-100) at 6 m/s for 20 seconds. Homogenates were centrifuged at 20800×g for 5 min and supernatants collected. Supernatants were centrifuged at 221.300×g for 50 min. The resulting high speed supernatants were then transferred to fresh eppendorf tubes. Nine parts of supernatant were neutralized with 1 part 0.5 M Tris-HCl pH 6.8 and used to quantify Aβ.
To quantify the amount of Aβ42, Aβ40, Aβ38, and Aβ37 in the soluble fraction of the brain homogenates, simultaneous specific detection of Aβ42, Aβ40, Aβ38, and Aβ37 was performed using MSD's electro-chemiluminescence multiplex detection technology. In this assay purified monoclonal antibodies specific for Abeta37 (JRD/Aβ37/3), Abeta38 (J&JPRD/Aβ38/5), Abeta40 (JRF/cAβ40/28), and Abeta42 (JRF/cAβ(342/26) were coated on MSD 4-plex plates. Briefly, the standards (a dilution of synthetic Aβ42, Aβ40, Aβ38, and Aβ37) were prepared in 1.5 ml Eppendorf tube in Ultraculture, with final concentrations ranging from 10000 to 0.3 pg/m. The samples and standards were co-incubated with Sulfo-tag labelled JRF/rAβ/2 antibody to the N-terminus of Aβ as detector antibody. 50 μl of conjugate/sample or conjugate/standards mixtures were then added to the antibody-coated plate. The plate was allowed to incubate overnight at 4° C. in order to allow formation of the antibody-amyloid complex. Following this incubation and subsequent wash steps the assay was finished by adding read buffer according to the manufacturer's instructions (Meso Scale Discovery, Gaitherburg, Md.).
The SULFO-TAG emits light upon electrochemical stimulation initiated at the electrode. MSD Sector instrument SI6000 was used for signal read-out.
The results are shown in Table 8 (value for untreated animals as control (Ctrl) was set at 100): […]

[6] = dose 10, s.c., 2 h after administration
[7] = dose 10, s.c., 4 h after administration
[8] = dose 10, p.o., 2 h after administration
[9] = dose 10, p.o., 4 h after administration

Chain of recombinant BACE2 protein (Q9Y5Z0 63-518): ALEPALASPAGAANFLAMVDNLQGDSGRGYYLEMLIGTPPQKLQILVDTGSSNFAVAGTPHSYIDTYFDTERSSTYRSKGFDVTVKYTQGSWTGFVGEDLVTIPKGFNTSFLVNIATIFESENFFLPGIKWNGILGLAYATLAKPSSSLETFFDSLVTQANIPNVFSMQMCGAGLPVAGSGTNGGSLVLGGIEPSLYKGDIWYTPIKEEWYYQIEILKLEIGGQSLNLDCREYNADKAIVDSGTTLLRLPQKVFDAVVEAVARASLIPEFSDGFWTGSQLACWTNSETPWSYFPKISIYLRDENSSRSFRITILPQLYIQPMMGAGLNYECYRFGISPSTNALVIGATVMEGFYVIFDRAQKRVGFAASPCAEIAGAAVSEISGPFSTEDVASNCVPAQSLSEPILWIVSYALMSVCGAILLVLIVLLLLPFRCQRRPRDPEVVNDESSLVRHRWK
Chain of recombinant BACE1 protein (P56817 46-501): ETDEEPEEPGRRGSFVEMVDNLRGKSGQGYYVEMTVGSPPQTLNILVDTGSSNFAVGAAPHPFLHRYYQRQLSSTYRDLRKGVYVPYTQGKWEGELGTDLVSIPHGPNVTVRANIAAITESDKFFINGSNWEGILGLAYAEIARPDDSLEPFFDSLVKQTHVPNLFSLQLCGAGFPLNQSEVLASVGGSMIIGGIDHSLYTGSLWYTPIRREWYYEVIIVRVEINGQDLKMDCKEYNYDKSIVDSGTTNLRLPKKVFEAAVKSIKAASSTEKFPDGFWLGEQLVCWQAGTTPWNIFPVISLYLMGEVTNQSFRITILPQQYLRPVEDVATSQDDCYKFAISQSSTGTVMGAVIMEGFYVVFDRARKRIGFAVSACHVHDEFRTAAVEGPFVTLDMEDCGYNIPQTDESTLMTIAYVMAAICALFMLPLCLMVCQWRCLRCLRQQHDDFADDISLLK

| SMILES | IC50 [1] | IC50 [4] | BACE2 Biochemical FRET based assay pIC50 [2] | BACE1 Biochemical FRET based assay - Method 2 pIC50 [3] | other results |
| --- | --- | --- | --- | --- | --- |
| NC1=NC(CF)(c2cc(NC(=O)c3ccc(F)cn3)ccc2F)Cn2nncc21 (racemic) [Compound 9, (rac)-N-{3-[4-amino-6-(fluoromethyl)-6,7-dihydro[1,2,3]triazolo[1,5-a]pyrazin-6-yl]-4-fluorophenyl}-5-fluoropyridine-2-carboxamide] | 56.2 nM | 57.5 nM |  |  | IC50 ([2]; read-out: BACE2 Biochemical FRET based assay pIC50 (converted)): 8.32 nM; IC50 ([3]; read-out: BACE1 Biochemical FRET based assay - Method 2 pIC50 (converted)): 8.32 nM |
| C[C@@]1(c2cc(NC(=O)c3ccc(C#N)cn3)ccc2F)Cn2nncc2C(N)=N1 [Compound 2, N-{3-[(6R)-4-Amino-6-methyl-6,7-dihydro[1,2,3]triazolo[1,5-a]pyrazin-6-yl]-4-fluorophenyl}-5-cyanopyridine-2-carboxamide] | 1.05 nM | 1.1 nM |  |  | Aβ40 (% vs Ctrl)_Mean [5, 6]: 44 % vs Ctrl; Aβ42 (% vs Ctrl)_Mean [5, 6]: 44 % vs Ctrl; Aβ40 (% vs Ctrl)_Mean [5, 7]: 61 % vs Ctrl; Aβ42 (% vs Ctrl)_Mean [5, 7]: 50 % vs Ctrl |
| C[C@@]1(c2cc(NC(=O)c3nn(C(F)F)cc3Cl)ccc2F)Cn2nncc2C(N)=N1 [Compound 5, N-{3-[(6R)-4-Amino-6-methyl-6,7-dihydro[1,2,3]triazolo[1,5-a]pyrazin-6-yl]-4-fluorophenyl}-4-chloro-1-(difluoromethyl)-1H-pyrazole-3-carboxamide] | 3.09 nM | 3.72 nM | 8.73 | 8.72 |  |
| C[C@@]1(c2cc(NC(=O)c3cnc(OCC(F)(F)F)cn3)ccc2F)Cn2nncc2C(N)=N1 [Compound 6, N-{3-[(6R)-4-amino-6-methyl-6,7-dihydro[1,2,3]triazolo[1,5-a]pyrazin-6-yl]-4-fluoropheny}-5-(2,2,2-trifluoroethoxy)pyrazine-2-carboxamide] |  |  | 7.22 | 8.51 | Cellular αLisa assay in SKNBE2 cells Abetatotal pIC50 [1]: 8.32; Cellular αLisa assay in SKNBE2 cells Abeta 42 pIC50 [4]: 8.28 |
| C[C@@]1(c2cc(NC(=O)c3cnc(OCF)cn3)ccc2F)Cn2nncc2C(N)=N1 [Compound 7, N-{3-[(6R)-4-amino-6-methyl-6,7-dihydro[1,2,3]triazolo[1,5-a]pyrazin-6-yl]-4-fluoropheny}-5-(fluoromethoxy)pyrazine-2-carboxamide] |  |  | 7.78 | 8.52 | Cellular αLisa assay in SKNBE2 cells Abetatotal pIC50 [1]: 8.86; Cellular αLisa assay in SKNBE2 cells Abeta 42 pIC50 [4]: 8.87 |
| C[C@@]1(c2cc(NC(=O)c3ccc(F)cn3)cc(F)c2F)Cn2nncc2C(N)=N1 [Compound 8, N-{3-[(6R)-4-Amino-6-methyl-6,7-dihydro[1,2,3]triazolo[1,5-a]pyrazin-6-yl]-4,5-difluorophenyl}-5-fluoropyridine-2-carboxamide] | 4.47 nM | 4.68 nM |  | 8.36 | Aβ40 (% vs Ctrl)_Mean [5, 6]: 56 % vs Ctrl; Aβ42 (% vs Ctrl)_Mean [5, 6]: 56 % vs Ctrl; Aβ40 (% vs Ctrl)_Mean [5, 7]: 136 % vs Ctrl; Aβ42 (% vs Ctrl)_Mean [5, 7]: 105 % vs Ctrl |
| NC1=N[C@](CF)(c2cc(NC(=O)c3ccc(F)cn3)ccc2F)Cn2nncc21 [Compound 10, N-{3-[(6R)-4-amino-6-(fluoromethyl)-6,7-dihydro[1,2,3]triazolo[1,5-a]pyrazin-6-yl]-4-fluorophenyl}-5-fluoropyridine-2-carboxamide] | 24.5 nM | 24.5 nM | 8.49 | 8.39 | Aβ40 (% vs Ctrl)_Mean [5, 8]: 95 % vs Ctrl; Aβ42 (% vs Ctrl)_Mean [5, 8]: 79 % vs Ctrl; Aβ40 (% vs Ctrl)_Mean [5, 9]: 116 % vs Ctrl; Aβ42 (% vs Ctrl)_Mean [5, 9]: 87 % vs Ctrl |
| NC1=N[C@@](CF)(c2cc(NC(=O)c3ccc(F)cn3)ccc2F)Cn2nncc21 [Compound 11, N-{3-[(6S)-4-amino-6-(fluoromethyl)-6,7-dihydro[1,2,3]triazolo[1,5-a]pyrazin-6-yl]-4-fluorophenyl}-5-fluoropyridine-2-carboxamide] | 4470 nM | 4170 nM | 6.3 | 6.12 |  |
